Test results taken from patent US20230172957A1, “USE OF ASTRAGALUS MEDICINAL COMPOSITION FOR PREPARING DRUG FOR ENHANCING CANCER THERAPY” (PHYTOHEALTH CORPORATION, priority 2020, published 2023).
Several values for one entry are separate records, joined by “and”; a condition that tells them apart may be missing. Equal values may be shown once.

Experiments:
[1] = test system: HCT116 cells; assay: Cell viability of colorectal cancer cells measured by MTS (poisonous dose test and chemotherapeutic synergism); type: cell-based
Procedure: (1) First of all, poisonous dose test (the chemotherapy drug dose for inhibiting the cell growth and leaving 60˜70% of growth capability is selected for subsequent test) (2) The cells are inoculated in 96-well plate and cultured for 24 hours. (3) Test drugs at different concentrations are added in, the test concentrations of the r-APS are 0, 2 and 4 mg/ml, the test concentrations of the astragalus pharmaceutical composition comprising the r-APS and the mannose (r-APS+mannose) are 0, 5 and 10 mg/ml. (4) The dose with a poisoning effect on 35˜40% of individual cells is selected as chemotherapy drug dose. (5) The cell viability is tested in 48 and 72 hours respectively after addition. (6) Experiment on chemotherapeutic synergism of the r-APS and the astragalus pharmaceutical composition comprising the r-APS and the mannose (r-APS+mannose): (7) The cells are inoculated in 96-well plate and cultured for 24 hours. (8) The r-APS or the astragalus pharmaceutical composition comprising the r-APS and the mannose (r-APS+mannose) in combination with chemotherapy drug are cultured for 48 hours, the doses of the r-APS and the astragalus pharmaceutical composition comprising the r-APS and the mannose (r-APS+mannose) are selected four poisonous doses for test, and then the cell viability is measured by MTS in 48 hours.

[2] = test system: OVCAR cells; assay: Cell viability of ovarian cancer cell line measured by MTS (poisonous dose test and chemotherapeutic synergism); type: cell-based
Procedure: (1) Poisonous dose test (the chemotherapy drug dose for inhibiting the cell growth and leaving 60˜70% of growth capability is selected for subsequent test). (2) The cells are inoculated in 96-well plate and cultured for 24 hours. (3) Test drugs at different concentrations are added in, the test concentrations of the r-APS are 0, 2 and 4 mg/ml, the test concentrations of the astragalus pharmaceutical composition comprising the r-APS and the mannose (r-APS+mannose) are 0, 5 and 10 mg/ml. (4) The dose with a poisoning effect on 35-40% of individual cells is selected as chemotherapy drug dose. (5) The cell viability is tested in 48 and 72 hours respectively after addition. (6) Experiment on chemotherapeutic synergism of the r-APS and the astragalus pharmaceutical composition comprising the r-APS and the mannose (r-APS+mannose). (7) The cells are inoculated in 96-well plate and cultured for 24 hours. (8) The r-APS or the astragalus pharmaceutical composition comprising the r-APS and the mannose (r-APS+mannose) in combination with chemotherapy drug are cultured for 48 hours, the dose of the r-APS and the astragalus pharmaceutical composition comprising the r-APS and the mannose (r-APS+mannose) is three poisonous doses for test, the cell viability is measured by MTS in 48 hours.

[3] = Regorafenib 0.01 mM alone (0 mg/ml test drug), HCT116, 48 hours
[4] = Regorafenib 0.01 mM, HCT116, poisonous dose test
[5] = Olaparib 0.2M, poisonous dose test
[6] = Olaparib 0.4M, poisonous dose test
[7] = Olaparib 0.6M, poisonous dose test
[8] = Olaparib 0.8M, poisonous dose test
[9] = Olaparib 1M, poisonous dose test
[10] = Olaparib alone (0 mg/ml test drug), 48 hours

CNC(=O)c1cc(Oc2ccc(NC(=O)Nc3ccc(Cl)c(C(F)(F)F)c3)c(F)c2)ccn1 [Regorafenib]
viability at 0.01 µM ([1]; Homo sapiens, HCT-116, Regorafenib 0.00001 mM, HCT116, poisonous dose test): 110% | viability at 0.1 µM ([1]; Homo sapiens, HCT-116, Regorafenib 0.0001 mM, HCT116, poisonous dose test): 107% | viability at 1 µM ([1]; Homo sapiens, HCT-116, Regorafenib 0.001 mM, HCT116, poisonous dose test): 94.4% | viability at 10 µM ([1]; Homo sapiens, HCT-116, Regorafenib 0.01 mM, HCT116, poisonous dose test): 60% | viability at 100 µM ([1]; Homo sapiens, HCT-116, Regorafenib 0.1 mM, HCT116, poisonous dose test): 9.2% | Mean value (MEAN) of three repeats (raw reading) ([1]; Regorafenib 0.00001 mM, HCT116, poisonous dose test): 1.103 | Mean value (MEAN) of three repeats (raw reading) ([1]; Regorafenib 0.0001 mM, HCT116, poisonous dose test): 1.075 | Mean value (MEAN) of three repeats (raw reading) ([1]; Regorafenib 0.001 mM, HCT116, poisonous dose test): 0.950 | Cell viability (%) [1, 3]: 71.4% and 71.43% | Mean value (MEAN) of three repeats (raw reading) [1, 3]: 0.641 | Cell viability (%) [1, 4]: 63.5% | Mean value (MEAN) of three repeats (raw reading) [1, 4]: 0.639 | Mean value (MEAN) of three repeats (raw reading) ([1]; Regorafenib 0.1 mM, HCT116, poisonous dose test): 0.093

O=C(c1cc(Cc2n[nH]c(=O)c3ccccc23)ccc1F)N1CCN(C(=O)C2CC2)CC1 [Olaparib]
Cell viability (%) [2, 5]: 100.55% | Mean value (MEAN) of three repeats (raw reading) [2, 5]: 0.984 | Cell viability (%) [2, 6]: 90.32% | Mean value (MEAN) of three repeats (raw reading) [2, 6]: 0.884 | Cell viability (%) [2, 7]: 75.13% | Mean value (MEAN) of three repeats (raw reading) [2, 7]: 0.735 | cell viability of cancer cells poisoned to ([2]; Olaparib 0.7M, poisonous dose test): 60% | Cell viability (%) [2, 8]: 48.72% | Mean value (MEAN) of three repeats (raw reading) [2, 8]: 0.477 | Cell viability (%) [2, 9]: 18.74% | Mean value (MEAN) of three repeats (raw reading) [2, 9]: 0.183 | Cell viability (%) [2, 10]: 60.189% and 61.4% | Mean value (MEAN) of three repeats (raw reading) [2, 10]: 0.595 and 0.605
